Like-named read-outs stand apart in the source and are kept apart here.
Experiment: Tissue half-life (t1/2) and Cmax in plasma, brain, kidney and liver after oral administration to CD-1 mice
Format: in vivo, mouse
Settings: for half-life: male, mouse
Experimental: In vivo studies were conducted to observe the effect of the compounds of the invention in the subject animal. Male CD-1 mice, body weight of 20 grams at arrival, were used in these studies. Mice were given 30 mg/kg of compound in HPMC/Tween solution or suspension via oral gavage. Plasma, brain, and liver samples were collected at time periods of 1, 2, 4, 8, and 24 hours post dosing. One mouse was used per time point. Thus, a total of 5 mice were used for each compound tested. For sample collection, mice were euthanized with CO2. Blood samples were taken by cardiac puncture and kept on ice. Brain and liver samples were collected immediately after bleeding and the samples were kept on dry ice. For calculation of tissue half-lives (t1/2s), the terminal rate constant k was estimated by the absolute value of the slope of a log-linear regression of the terminal phase of the tissue concentration-time profile. The tissue half-life t1/2 is ln(2)/k.
The following table includes t1/2 data for plasma, brain, kidney, and liver obtained after oral administration.
Tissue Half-Life Data for Various Quinazolinone Compounds (PO)

[1] = brain t1/2, 30 mg/kg oral gavage (PO), read-out: Half-Lives (h) Brain (converted)
[2] = liver t1/2, 30 mg/kg oral gavage (PO), read-out: Half-Lives (h) Liver (converted)
[3] = plasma t1/2, 30 mg/kg oral gavage (PO), read-out: Half-Lives (h) Plasma (converted)
[4] = kidney t1/2, 30 mg/kg oral gavage (PO), read-out: Half-Lives (h) Kidney (converted)
[5] = brain t1/2, 30 mg/kg oral gavage (PO)
[6] = liver t1/2, 30 mg/kg oral gavage (PO)
[7] = plasma t1/2, 30 mg/kg oral gavage (PO)

Row | half-life [1] | half-life [2] | half-life [3] | half-life [4] | Half-Lives (h) Brain [5] | Half-Lives (h) Liver [6] | Half-Lives (h) Plasma [7] | Compound
1 | 15 h | 4.6 h | 2.6 h |  |  |  |  | C[C@@H]1[C@@H](N=C(Nc2ccc3c(=O)n(CCc4ccc(Br)cc4)c(-c4cnccn4)nc3c2)N2CCN[C@@H](C(F)F)C2)C[C@H]2C[C@@H]1C2(C)C [Example 231, (3R)-N-{3-[2-(4bromophenyl)ethyl]-4-oxo-2-pyrazin-2-yl-3,4-dihydroquinazolin-7-yl]-3-(difluoromethyl)-N′-[(1S,2S,3S,5R)-2,6,6-trimethylbicyclo[3.1.1]hept-3-yl]piperazine-1-carboximidamide]
2 | 12 h | 3 h | 20 h |  |  |  |  | C[C@@H]1[C@@H](N=C(Nc2ccc3c(=O)n(CCc4ccc(F)cc4)c(CF)nc3c2)N2CCN[C@@H](CF)C2)C[C@H]2C[C@@H]1C2(C)C [Example 257, (3R)-3-(fluoromethyl)-N-{2-(fluoromethyl)-3-[2-(4-fluorophenyl)ethyl]-4-oxo-3,4-dihydroquinazolin-7-yl}-N′-[(1 S,2S,3S,5R)-2,6,6-trimethylbicyclo[3.1.1]hept-3-yl]piperazine-1-carboximidamide]
3 | 25 h | 7.3 h | 5.6 h |  |  |  |  | COc1ccc(CCn2c(-c3ncc[nH]3)nc3cc(NC(=N[C@H]4C[C@H]5C[C@@H]([C@@H]4C)C5(C)C)N4CCN[C@@H](CF)C4)ccc3c2=O)c(F)c1 [Example 255, (3R)-N-[3-[2-(2-fluoro-4-methoxyphenyl)ethyl]-2-(1H-imidazoi-2-yl)-4-oxo-3,4-dihydroquinazolin-7-yl]-3-(fluoromethyl)-N′-[(1S,2S,3S,5R)-2,6,6-trimethylbicyclo[3.1.1]hept-3-yl]piperazine-1-carboximidamide]
4 |  | 2.9 h | 5.3 h |  |  |  |  | COc1ccc(CCn2c(NC3CC3)nc3cc(NC(=N[C@H]4C[C@H]5C[C@@H]([C@@H]4C)C5(C)C)N4CCN[C@@H](CF)C4)ccc3c2=O)c(F)c1 [Example 258, (3R)-N-{2-(cyclopropylamino)-3-(2-(2-fluoro-4-methoxyphenyl)ethyl]-4-oxo-3,4-dihydroquinazolin-7-yl}-3-(fluoromethyl)-N′-[(1S,2S,3S,5R)-2,6,6-trimethylbicyclo[3.1.1]hept-3-yl]piperazine-1-carboximidamide]
5 |  | 2.3 h | 2.1 h | 2.7 h |  |  |  | COc1ccc(CCn2cnc3cc(N/C(=N/C4C[C@@H]5C[C@H]([C@@H]4C)C5(C)C)N4CC(C)CC(C)C4)ccc3c2=O)c(F)c1 (stereo partly drawn) [Example 274, N-(3-{2-[2-fluoro-4-(methyloxy)phenyl]ethyl}-4-oxo-3,4-dihydro-7-quinazolinyl)-3,5-dimethyl-N-[(1R,2S,5S)-2,6,6-trimethylbicyclo[3.1.1]hept-3-yl]-1-piperidinecarboximidamide]
6 | 12 h | 8 h | 18 h | 11 h |  |  |  | COc1ccc(CCn2c(-c3cccnc3)nc3cc(NC(=N[C@H]4C[C@H]5C[C@@H]([C@@H]4C)C5(C)C)N4CCN(CC#N)[C@@H](C)C4)ccc3c2=O)c(F)c1 [Example 247, (3S)-4-(cyanomethyl)-N-{3-[2-(2-fluoro-4-methoxyphenyl)ethyl]-4-oxo-2-pyridin-3-yl-3,4-dihydroquinazolin-7-yl}-3-methyl-N′-[(1S,2S,3S,5R)-2,6,6-trimethylbicyclo[3.1.1]hept-3-yl]piperazine-1-carboximidamide]
7 | 3.1 h | 5.2 h | 2.2 h | 1.7 h |  |  |  | COc1ccc(CCn2c(-c3cccnc3)nc3cc(NC(=N[C@H]4C[C@H]5C[C@@H]([C@@H]4C)C5(C)C)N4CCN(O)[C@@H](C)C4)ccc3c2=O)c(F)c1 [Example 245, (3S)-N-{3[2(2-fluoro-4-methoxyphenyl)ethyl]-4-oxo-2-pyridin-3-yl-3,4-dihydroquinazolin-7-yl}-4-hydroxy-3-methyl-N′-[(1S,2S,3S,5R)-2,6,6-trimethylbicyclo[3.1.1]hept-3-yl]piperazine-1-carboximidamide]
8 |  | 3.9 h | 2.2 h |  |  |  |  | C[C@@H]1[C@@H](N=C(Nc2ccc3c(=O)n(CCc4ccc(F)cc4)c(-c4cnccn4)nc3c2)N2CC(=O)N[C@@H](C)C2)C[C@H]2C[C@@H]1C2(C)C [Example 218, (3S)-N-{3-[2-(4-fluorophenyl)ethyl]-4-oxo-2-pyrazin-2-yl-3,4-dihydroquinazolin-7-yl}-3-methyl-5-oxo-N′-[(1S,2S,3S,5R)-2,6,6-trimethylbicyclo[3.1.1]hept-3-yl]piperazine-1-carboximidamide]
9 |  |  |  |  | 51 h | 17 h | 21 h | (3S)-N-{3-[2-(4-chlorophenyl)ethyl]-4-oxo-2-piperidin-3-yl-3,4-dihydroquinazolin-7-yl}-3-methyl-5-oxo-N′-[(1S,2S,3S,5R)-2,6,6-trimethylbicyclo[3.1.1]hept-3-yl]piperazine-1-carboximdamide [Example 241]
10 |  | 4.6 h | 18.9 h | 5.1 h |  |  |  | C[C@@H]1[C@@H](/N=C(/Nc2ccc3c(=O)n(CCc4ccc(Cl)cc4Cl)cnc3c2)N2CC(O)C2)C[C@@H]2C[C@H]1C2(C)C [Example 337, N-{3-[2-(2,4-dichlorophenyl)ethyl]-4-oxo-3,4-dihydro-7-quinazolinyl}-3-hydroxy-N′-[(1R,2S,3S,5S)-2,6,6-trimethylbicyclo[3.1.1]hept-3-yl]-1-azetidinecarboximidamide]
11 |  |  | 5.3 h | 6.5 h |  |  |  | COc1ccc(CCn2cnc3cc(N/C(=N/[C@H]4C[C@@H]5C[C@H]([C@@H]4C)C5(C)C)N4CCC[C@H]4CO)ccc3c2=O)c(F)c1 [Example 281, (2S)-N-(3-{2-[2-fluoro-(methyloxy)phenyl]ethyl]-4-oxo-3,4-dihydro-7-quinazolinyl)-2-(hydroxymethyl)-N′-[(1R,2S,3S,5S)-2,6,6-trimethylbicyclo[3.1.1]hept-3-yl]-1-pyrrolidinecarboximidamide]
12 | 27 h | 6.9 h | 7.3 h | 14 h |  |  |  | COc1ccc(CCn2c(N3CCOCC3)nc3cc(NC(=N[C@H]4C[C@H]5C[C@@H]([C@@H]4C)C5(C)C)N4CCN[C@@H](CF)C4)ccc3c2=O)c(F)c1 [Example 253]
13 |  |  |  |  | 15 h | 4.3 h | 5.4 h | COc1ccc(CCn2c(C#N)nc3cc(NC(=NC4C[C@H]5C[C@@H]([C@@H]4C)C5(C)C)N4CCN[C@@H](CF)C4)ccc3c2=O)c(F)c1 (stereo partly drawn) [Example 256, (3R)-N-{2-cyano-3-[2-(2-fluoro-4-methoxyphenyl)ethyl]-4-oxo-3,4-dihydroquinazolin-7-yl}-3-(fluoromethyl)-N′-[(1S,2S,5R)-26,6-trimethylbicyclo[3.1.1]hept-3-yl]piperazine-1-carboximidamide]
14 | 5.4 h | 6.8 h | 4 h | 8.6 h |  |  |  | COc1ccc(CCn2c(-c3cnccn3)nc3cc(NC(=N[C@H]4C[C@H]5C[C@@H]([C@@H]4C)C5(C)C)N4CCN[C@@H](CF)C4)ccc3c2=O)c(F)c1 [Example 251, (3R)-N-{3-[2-(2-fluoro-4-methoxyphenyl)ethyl]-4-oxo-2-pyrazin-2-yl-3,4-dihydroquinazolin-7-yl}-3-(fluoromethyl)-N′-[(1S,2S,3S,5R)-2,6,6-trimethylbicyclo[3.1.1]hept-3-yl]piperazine-1-carboximidamide]
15 |  | 3.6 h | 2.5 h | 9.4 h |  |  |  | COc1ccc(CCn2cnc3cc(N/C(=N/[C@H]4C[C@@H]5C[C@H]([C@@H]4C)C5(C)C)N4C[C@@H](C)N(C#N)[C@@H](C)C4)ccc3c2=O)c(F)c1 [Example 301, (3R,5S)-4-cyano-N-(3-{-[2-fluoro-4-(methyloxy)phenyl]ethyl}-4-oxo-3,4-dihydro-7-quinazolinyl]-3,5-dimethyl-N′-[(1R,2S,3S,5S)-2,6,6-trimethylbicyclo[3.1.1]hept-3-yl]-1-piperazinecarboximidamide]
16 | 11 h | 20 h | 15 h | 9.6 h |  |  |  | COc1ccc(CCn2c(-c3nccs3)nc3cc(NC(=N[C@H]4C[C@H]5C[C@@H]([C@@H]4C)C5(C)C)N4CCN[C@@H](CF)C4)ccc3c2=O)c(F)c1 [Example 254, (3R)-N-[3-[2-(2-fluoro-4-methoxyphenyl)ethyl]-4-oxo-2-(1,3-thiazol-2-yl)-3,4-dihydroquinazolin-7-yl]-3-(fluoromethyl)-N′-[(1 S,2S,3S,5R)-2,6,6-trimethylbicyclo[3.1.1]hept-3-yl]piperazine-1-carboximidamide]
17 | 5.8 h | 18 h | 5.7 h | 3.1 h |  |  |  | COc1ccc(CCn2c(-c3cccnc3)nc3cc(N/C(=N/C4C[C@H]5C[C@@H]([C@@H]4C)C5(C)C)N4CCN(C#N)[C@@H](C)C4)ccc3c2=O)c(F)c1 (stereo partly shown) [Example 246]
18 |  | 9.1 h |  |  |  |  |  | C[C@@H]1[C@@H](N=C(Nc2ccc3c(=O)n(CCc4ccc(Cl)cc4Cl)c(-c4cnccn4)nc3c2)N2CCN[C@@H](C(F)F)C2)C[C@H]2C[C@@H]1C2(C)C [Example 228, (3R)-N-{3-[2-(2,4-dichlorophenyl)ethyl]-4-oxo-2-pyrazin-2-yl-3,4-dihydroquinazolin-7-yl}-3-(difluoromethyl)-N′-[(1S,2S,3S,5R)-2,6,6-trimethylbicyclo[3.1.1]hept-3-yl]piperazine-1-carboximidamide]

From US7368453B2, “Quinazolinone compounds with reduced bioaccumulation” (Chiron Corporation, priority 2003, dated 2008)
